This passage reports ED50 results from ChEMBL document CHEMBL1122879, “Racemic and optically active 1,3,3-trimethyl-4-phenyl-4-(propionyloxy)piperidine” (1985).

What all share (assay type): functional
One assay deals with Mus musculus. Briefly: Effective dose for antinociceptive activity in mice hot plate test s.c. To be noted: sc. (Hot-plate and tail-flick tests time the reaction to a heat stimulus.)
Assay [1] concerns Rattus norvegicus. Briefly: Effective dose for antinociceptive activity in rat tail-withdrawal test i.v.
The species named for assay [2] is Rattus norvegicus. Description: Effective dose for antinociceptive activity in rats.

Usually ED50 stands for the dose that gives a 50% effect, or the effect in half of the subjects. A higher ED50 goes with a need for a large dose. Consider `CCOC(=O)C1(c2ccccc2)CCN(C)CC1` [MEPERIDINE], for which the ED50 was determined as 4.1 mg/kg with Mus musculus and 6.15 mg/kg in the assay on Rattus norvegicus [1].

As to `CCC(=O)OC1(c2ccccc2)CCN(C)CC1(C)C` (racemic), the ED50 in the assay on Mus musculus was 0.61 mg/kg; in the assay on Rattus norvegicus [1], 0.63 mg/kg.

With `CCC(=O)O[C@@]1(c2ccccc2)CCN(C)CC1(C)C`, the ED50 in the assay filed under Rattus norvegicus [2] was 0.5 mg/kg.
